Measurements: patent US20170320870A1 (Medical Research Council Technology, priority 2009, published 2017)
pIC50: −log10 of the molar value.

Legend:
Assay type in all cases: biochemical
[1] = target: T1, LRRK2 wild type (recombinant human, catalytic domain amino acids 970-2527, GST-tagged) (Homo sapiens, UniProt Q5S007); experiment: LRRK2 wild type protein kinase assay ([γ-33P] ATP, peptide substrate […]), IC50; settings: LRRK2 (variant not given); read-out: Potency score, LRRK2 IC50
T1 construct: The wild type used was recombinant human, catalytic domain (amino acids 970-2527) GST-tagged, expressed in insect cells; GST; purchased Invitrogen Corporation PV4873; host or cells: insect cells
How it was run: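 Insect-cell-expressed enzyme (~5 nM), no activation, incubated 180 min at ~21 °C in 50 mM Tris-HCl pH 7.5, 0.1 mM EGTA, 1 mM DTT, 10 mM MgCl2 with 100 μM peptide substrate and [γ-33P]ATP. Reaction stopped with orthophosphoric acid, captured on P81 filters and counted; IC50 from 10 concentrations in duplicate.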

[2] = target: each specific kinase (kinase selectivity panel, Table 2) (Homo sapiens, UniProt O43353); experiment: Kinase selectivity: percentage inhibition of each specific kinase at 1 μM inhibitor concentration; settings: RIPK2
each specific kinase (kinase selectivity panel, Table 2) (Homo sapiens, UniProt O43353), sequence (O43353 whole entry): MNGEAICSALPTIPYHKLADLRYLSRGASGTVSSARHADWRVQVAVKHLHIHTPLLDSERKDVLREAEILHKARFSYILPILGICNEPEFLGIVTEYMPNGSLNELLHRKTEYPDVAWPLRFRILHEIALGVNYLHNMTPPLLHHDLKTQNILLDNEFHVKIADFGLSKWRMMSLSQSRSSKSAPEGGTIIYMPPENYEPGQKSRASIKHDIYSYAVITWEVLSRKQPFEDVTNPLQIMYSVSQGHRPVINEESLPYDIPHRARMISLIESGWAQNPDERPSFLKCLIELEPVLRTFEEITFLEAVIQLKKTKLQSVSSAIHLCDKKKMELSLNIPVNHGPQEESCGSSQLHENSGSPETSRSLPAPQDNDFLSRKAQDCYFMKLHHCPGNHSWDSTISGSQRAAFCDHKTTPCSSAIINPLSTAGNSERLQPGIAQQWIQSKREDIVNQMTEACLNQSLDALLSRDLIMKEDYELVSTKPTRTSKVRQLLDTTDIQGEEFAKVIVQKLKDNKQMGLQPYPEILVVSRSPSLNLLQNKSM
Protocol: (§1) Values are expressed as percentage inhibition of the each specific kinase at 1 μM inhibitor concentration.

[3] = target: each specific kinase (kinase selectivity panel, Table 2) (Homo sapiens, UniProt Q9HBH9); experiment: as above; settings: MNK2
Protocol: as §1

[4] = target: each specific kinase (kinase selectivity panel, Table 2) (Homo sapiens, UniProt Q15303); experiment: as above; settings: HER4
Protocol: as §1

[5] = target: each specific kinase (kinase selectivity panel, Table 2) (Homo sapiens, UniProt O00418); experiment: as above; settings: EF2K
each specific kinase (kinase selectivity panel, Table 2) (Homo sapiens, UniProt O00418), sequence (O00418 whole entry): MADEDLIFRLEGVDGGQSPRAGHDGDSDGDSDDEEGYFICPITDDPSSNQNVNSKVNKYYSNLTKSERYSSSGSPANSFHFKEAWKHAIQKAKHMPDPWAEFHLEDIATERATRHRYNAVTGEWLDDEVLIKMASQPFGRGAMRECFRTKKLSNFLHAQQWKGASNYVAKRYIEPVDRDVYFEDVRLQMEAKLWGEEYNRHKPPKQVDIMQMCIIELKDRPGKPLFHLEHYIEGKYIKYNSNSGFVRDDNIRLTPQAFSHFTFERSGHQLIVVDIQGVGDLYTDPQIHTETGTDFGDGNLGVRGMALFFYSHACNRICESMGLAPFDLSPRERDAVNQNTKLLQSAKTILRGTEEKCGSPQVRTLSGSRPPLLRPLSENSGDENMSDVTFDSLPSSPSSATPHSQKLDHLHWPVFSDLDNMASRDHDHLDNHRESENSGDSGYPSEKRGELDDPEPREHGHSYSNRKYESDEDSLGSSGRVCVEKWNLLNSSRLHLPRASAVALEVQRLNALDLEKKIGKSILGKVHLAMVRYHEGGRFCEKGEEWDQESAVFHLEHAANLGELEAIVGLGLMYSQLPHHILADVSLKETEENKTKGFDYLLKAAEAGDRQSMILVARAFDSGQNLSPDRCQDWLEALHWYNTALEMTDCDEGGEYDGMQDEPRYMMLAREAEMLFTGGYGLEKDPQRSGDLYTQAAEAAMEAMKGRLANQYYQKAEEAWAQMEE
Protocol: as §1

[6] = target: each specific kinase (kinase selectivity panel, Table 2) (Homo sapiens, UniProt Q13233); experiment: as above; settings: MEKK1
Protocol: as §1

[7] = target: each specific kinase (kinase selectivity panel, Table 2) (Homo sapiens, UniProt Q16513); experiment: as above; settings: PRK2
Protocol: as §1

[8] = target: each specific kinase (kinase selectivity panel, Table 2) (Homo sapiens, UniProt Q06187); experiment: as above; settings: BTK
Protocol: as §1

[9] = target: each specific kinase (kinase selectivity panel, Table 2) (Rattus norvegicus, UniProt Q62868); experiment: as above; settings: ROCK 2
Protocol: as §1

[10] = target: each specific kinase (kinase selectivity panel, Table 2) (Homo sapiens, UniProt Q9H2X6); experiment: as above; settings: HIPK2
Protocol: as §1

[11] = target: each specific kinase (kinase selectivity panel, Table 2) (Homo sapiens, UniProt P24941); experiment: as above; settings: CDK2-Cyclin A
Protocol: as §1

[12] = target: each specific kinase (kinase selectivity panel, Table 2) (Homo sapiens, UniProt P49841); experiment: as above; settings: GSK3b
Protocol: as §1

[13] = target: each specific kinase (kinase selectivity panel, Table 2) (Homo sapiens, UniProt Q9HC98); experiment: as above; settings: NEK6
Protocol: as §1

[14] = target: each specific kinase (kinase selectivity panel, Table 2) (Homo sapiens, UniProt P33981); experiment: as above; settings: TTK
Protocol: as §1

[15] = target: each specific kinase (kinase selectivity panel, Table 2) (Homo sapiens, UniProt Q15746); experiment: as above; settings: SmMLCK
each specific kinase (kinase selectivity panel, Table 2) (Homo sapiens, UniProt Q15746), sequence (Q15746 whole entry): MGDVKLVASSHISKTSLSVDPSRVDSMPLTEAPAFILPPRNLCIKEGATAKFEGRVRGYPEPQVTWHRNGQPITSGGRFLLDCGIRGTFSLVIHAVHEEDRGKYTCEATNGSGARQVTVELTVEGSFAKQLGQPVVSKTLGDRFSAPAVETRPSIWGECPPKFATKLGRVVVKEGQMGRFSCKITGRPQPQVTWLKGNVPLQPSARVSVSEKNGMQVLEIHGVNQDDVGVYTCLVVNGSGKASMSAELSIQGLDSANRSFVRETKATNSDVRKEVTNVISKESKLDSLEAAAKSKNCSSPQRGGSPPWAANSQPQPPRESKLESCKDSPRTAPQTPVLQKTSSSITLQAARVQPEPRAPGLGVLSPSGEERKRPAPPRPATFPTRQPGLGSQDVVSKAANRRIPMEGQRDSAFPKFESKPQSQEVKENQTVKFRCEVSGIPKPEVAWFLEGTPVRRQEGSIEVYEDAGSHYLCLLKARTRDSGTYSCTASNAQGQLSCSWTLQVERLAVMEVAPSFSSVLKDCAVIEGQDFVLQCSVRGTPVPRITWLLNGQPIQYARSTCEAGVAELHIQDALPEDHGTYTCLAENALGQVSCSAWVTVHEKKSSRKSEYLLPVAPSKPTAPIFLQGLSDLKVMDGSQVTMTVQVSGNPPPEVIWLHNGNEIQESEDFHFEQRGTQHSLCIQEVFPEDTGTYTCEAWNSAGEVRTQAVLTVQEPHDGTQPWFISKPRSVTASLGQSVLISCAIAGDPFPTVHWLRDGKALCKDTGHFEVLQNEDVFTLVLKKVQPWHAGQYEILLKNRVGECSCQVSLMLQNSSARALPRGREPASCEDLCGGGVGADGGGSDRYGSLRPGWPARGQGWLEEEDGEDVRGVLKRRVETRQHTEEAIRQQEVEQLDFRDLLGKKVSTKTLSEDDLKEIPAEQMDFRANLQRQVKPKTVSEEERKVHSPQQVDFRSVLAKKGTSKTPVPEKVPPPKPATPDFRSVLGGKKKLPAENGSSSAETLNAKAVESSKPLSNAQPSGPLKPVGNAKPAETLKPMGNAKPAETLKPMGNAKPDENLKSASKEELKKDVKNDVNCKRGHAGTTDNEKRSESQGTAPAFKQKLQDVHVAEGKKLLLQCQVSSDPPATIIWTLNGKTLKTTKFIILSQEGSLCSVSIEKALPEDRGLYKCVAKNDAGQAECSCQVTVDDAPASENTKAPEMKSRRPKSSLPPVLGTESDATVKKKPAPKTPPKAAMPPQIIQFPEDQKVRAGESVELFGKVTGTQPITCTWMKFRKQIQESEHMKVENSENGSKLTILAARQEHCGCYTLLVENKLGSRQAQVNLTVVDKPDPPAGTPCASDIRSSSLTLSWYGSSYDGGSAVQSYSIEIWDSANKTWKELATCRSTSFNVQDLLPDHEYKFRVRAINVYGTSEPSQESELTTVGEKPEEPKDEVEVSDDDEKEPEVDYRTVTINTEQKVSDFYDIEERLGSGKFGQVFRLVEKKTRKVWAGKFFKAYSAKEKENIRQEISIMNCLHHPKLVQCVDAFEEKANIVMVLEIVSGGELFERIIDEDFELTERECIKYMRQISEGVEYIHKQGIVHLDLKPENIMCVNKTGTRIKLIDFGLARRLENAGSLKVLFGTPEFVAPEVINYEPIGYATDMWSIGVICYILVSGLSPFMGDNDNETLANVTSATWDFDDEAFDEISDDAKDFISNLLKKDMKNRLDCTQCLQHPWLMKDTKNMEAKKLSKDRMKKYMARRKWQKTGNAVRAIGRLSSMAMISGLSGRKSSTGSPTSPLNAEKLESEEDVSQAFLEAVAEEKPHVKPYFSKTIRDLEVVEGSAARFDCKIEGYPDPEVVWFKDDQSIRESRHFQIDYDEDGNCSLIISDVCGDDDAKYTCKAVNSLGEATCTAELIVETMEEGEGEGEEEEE
Protocol: as §1

[16] = target: each specific kinase (kinase selectivity panel, Table 2) (Homo sapiens, UniProt Q8N4C8); experiment: as above; settings: MINK1
each specific kinase (kinase selectivity panel, Table 2) (Homo sapiens, UniProt Q8N4C8), sequence (Q8N4C8 whole entry): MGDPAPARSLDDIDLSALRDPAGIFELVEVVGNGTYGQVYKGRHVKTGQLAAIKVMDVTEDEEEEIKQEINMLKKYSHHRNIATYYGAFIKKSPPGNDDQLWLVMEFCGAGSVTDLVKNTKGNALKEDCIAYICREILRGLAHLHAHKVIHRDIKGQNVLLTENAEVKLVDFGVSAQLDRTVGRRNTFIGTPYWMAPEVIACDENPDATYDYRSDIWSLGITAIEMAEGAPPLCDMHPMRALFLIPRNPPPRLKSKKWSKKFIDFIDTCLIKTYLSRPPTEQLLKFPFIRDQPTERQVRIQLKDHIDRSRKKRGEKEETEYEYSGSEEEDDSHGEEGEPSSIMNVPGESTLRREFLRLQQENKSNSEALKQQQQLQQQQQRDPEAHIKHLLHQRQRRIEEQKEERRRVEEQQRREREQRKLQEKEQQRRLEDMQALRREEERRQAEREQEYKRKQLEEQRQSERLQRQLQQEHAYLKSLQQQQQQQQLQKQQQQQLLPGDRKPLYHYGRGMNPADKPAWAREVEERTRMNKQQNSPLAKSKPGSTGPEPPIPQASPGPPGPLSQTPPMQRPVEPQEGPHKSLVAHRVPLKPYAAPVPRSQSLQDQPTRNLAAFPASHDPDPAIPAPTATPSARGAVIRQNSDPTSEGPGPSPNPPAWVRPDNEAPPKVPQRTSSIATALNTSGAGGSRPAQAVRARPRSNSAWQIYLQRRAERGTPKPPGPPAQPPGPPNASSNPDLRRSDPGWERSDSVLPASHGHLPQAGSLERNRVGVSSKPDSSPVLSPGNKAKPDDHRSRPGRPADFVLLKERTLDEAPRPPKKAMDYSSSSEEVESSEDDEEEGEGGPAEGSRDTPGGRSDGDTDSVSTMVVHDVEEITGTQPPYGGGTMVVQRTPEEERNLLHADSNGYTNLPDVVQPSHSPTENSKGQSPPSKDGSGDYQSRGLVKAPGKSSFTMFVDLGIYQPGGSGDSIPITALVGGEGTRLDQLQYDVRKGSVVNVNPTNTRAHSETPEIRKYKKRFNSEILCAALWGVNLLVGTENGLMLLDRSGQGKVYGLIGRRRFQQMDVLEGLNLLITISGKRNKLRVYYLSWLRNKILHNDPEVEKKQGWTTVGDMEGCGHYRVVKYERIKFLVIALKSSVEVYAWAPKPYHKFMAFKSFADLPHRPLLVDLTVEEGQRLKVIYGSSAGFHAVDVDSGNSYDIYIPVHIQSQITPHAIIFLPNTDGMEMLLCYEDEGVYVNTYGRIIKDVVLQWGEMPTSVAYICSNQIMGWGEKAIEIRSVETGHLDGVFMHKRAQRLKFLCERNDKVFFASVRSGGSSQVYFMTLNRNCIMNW
Protocol: as §1

[17] = target: each specific kinase (kinase selectivity panel, Table 2) (Homo sapiens, UniProt O60674); experiment: as above; settings: JAK2
Protocol: as §1

[18] = target: each specific kinase (kinase selectivity panel, Table 2) (Homo sapiens, UniProt P04629); experiment: as above; settings: TrkA
Protocol: as §1

[19] = target: each specific kinase (kinase selectivity panel, Table 2) (Homo sapiens, UniProt Q02750); experiment: as above; settings: MKK1
Protocol: as §1

[20] = target: each specific kinase (kinase selectivity panel, Table 2) (Homo sapiens, UniProt O96017); experiment: as above; settings: CHK2
Protocol: as §1

[21] = target: each specific kinase (kinase selectivity panel, Table 2) (Homo sapiens, UniProt Q16584); experiment: as above; settings: MLK3
Protocol: as §1

[22] = target: each specific kinase (kinase selectivity panel, Table 2) (Homo sapiens, UniProt P27361); experiment: as above; settings: ERK1
Protocol: as §1

[23] = target: each specific kinase (kinase selectivity panel, Table 2) (Homo sapiens, UniProt P31749); experiment: as above; settings: PKBa
each specific kinase (kinase selectivity panel, Table 2) (Homo sapiens, UniProt P31749), sequence (P31749 whole entry): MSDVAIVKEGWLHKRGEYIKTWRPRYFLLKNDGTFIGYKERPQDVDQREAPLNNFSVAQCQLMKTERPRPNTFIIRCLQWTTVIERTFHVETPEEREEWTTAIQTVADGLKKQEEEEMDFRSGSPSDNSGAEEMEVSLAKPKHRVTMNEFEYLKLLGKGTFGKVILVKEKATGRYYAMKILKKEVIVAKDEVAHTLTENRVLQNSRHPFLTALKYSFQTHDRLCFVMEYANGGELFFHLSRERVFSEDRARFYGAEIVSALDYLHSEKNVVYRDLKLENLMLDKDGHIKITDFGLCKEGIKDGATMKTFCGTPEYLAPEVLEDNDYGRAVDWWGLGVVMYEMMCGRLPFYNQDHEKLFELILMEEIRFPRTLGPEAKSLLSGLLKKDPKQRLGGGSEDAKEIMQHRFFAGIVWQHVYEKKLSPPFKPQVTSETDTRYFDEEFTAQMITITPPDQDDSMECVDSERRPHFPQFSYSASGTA
Protocol: as §1

[24] = target: each specific kinase (kinase selectivity panel, Table 2) (Homo sapiens, UniProt P80192); experiment: as above; settings: MLK1
Protocol: as §1

SMILES	pIC50 [1]	percentage inhibition of RIPK2 [2]	percentage inhibition of MNK2 [3]	percentage inhibition of HER4 [4]	percentage inhibition of EF2K [5]	percentage inhibition of MEKK1 [6]	percentage inhibition of PRK2 [7]	percentage inhibition of BTK [8]	percentage inhibition of ROCK 2 [9]	percentage inhibition of HIPK2 [10]	percentage inhibition of CDK2-Cyclin A [11]	percentage inhibition of GSK3b [12]	percentage inhibition of NEK6 [13]	percentage inhibition of TTK [14]	percentage inhibition of SmMLCK [15]	percentage inhibition of MINK1 [16]	percentage inhibition of JAK2 [17]	percentage inhibition of TrkA [18]	percentage inhibition of MKK1 [19]	percentage inhibition of CHK2 [20]	also measured
O=C(CCc1n[nH]c2ccnc(NC3CCCCC3)c12)N1CCC[C@H](c2ccccc2)C1 [Example 172, 3-(4-Cyclohexylamino-1H-pyrazolo[4,3-c]pyridin-3-yl)-1-((R)-3-phenyl-piperidin-1-yl)-propan-1-one]	> 7.00	0 percentage	0 percentage	10 percentage	0 percentage	7 percentage	16 percentage	12 percentage	7 percentage	0 percentage	0 percentage	5 percentage	1 percentage	14 percentage	18 percentage	18 percentage	12 percentage	5 percentage	17 percentage	40 percentage	percentage inhibition of MLK3 [21]: 29 percentage; percentage inhibition of ERK1 [22]: 0 percentage; percentage inhibition of PKBa [23]: 0 percentage; percentage inhibition of MLK1 [24]: 13 percentage
CC[C@H](C)Oc1nccc2[nH]nc(C)c12 [Example 121, 4-((S)-sec-Butoxy)-3-methyl-1H-pyrazolo[4,3-c]pyridine]	> 7.00	1 percentage	7 percentage	0 percentage	0 percentage	0 percentage	39 percentage	0 percentage	57 percentage	0 percentage	61 percentage	25 percentage	6 percentage	30 percentage	22 percentage	17 percentage	47 percentage	26 percentage	47 percentage	13 percentage	percentage inhibition of MLK3 [21]: 23 percentage; percentage inhibition of ERK1 [22]: 1 percentage; percentage inhibition of PKBa [23]: 19 percentage; percentage inhibition of MLK1 [24]: 19 percentage
